IC50 data for 88 compounds are collected here from the supplement of paper PMC3493320.

The structures appear in SMILES notation.

The term IC50 denotes the point on the concentration scale where inhibition reaches its midpoint. Higher therefore signals a need for much substance.

For this test, the system named is NCI-H295R. The test can be described thus: IC50 (antiproliferative, ATP content). The following applies: 48 h. The procedure, abridged: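 Adrenocortical carcinoma cells were plated at 1500 per well in 1536-well plates in serum-free DMEM with ITS supplement, left overnight, then given library compounds by pin transfer at 8 final concentrations spanning 0.6 nM to 46 µM and held 48 h at 37 °C, 5% CO2. ATP was measured as CellTiter-Glo luminescence after 20 min at room temperature and scaled between vehicle and positive-control wells. A four-parameter logistic model was fitted to each series. The IC50 was taken from these fits, and compounds without a concentration response were recorded as above the top dose.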
Compound `CN(C)CC\C2=C\Nc1ccc(cc12)Cn3cncn3` registered an IC50 greater than 46 µM.
For `c1cnc(N2CCN(Cc3ccc4c(c3)OCO4)CC2)nc1` the value was greater than 46 µM; for `O=C(O)C1=CC2=C(C=CC=C2)C(CC3=C(O)C(C(O)=O)=CC4=C3C=CC=C4)=C1O.O=C([C@H](NC([C@@H](NC([C@@H](NC([C@@H](NC([C@@H](N[C@]([C@@H](N%11)CCC%11=O)=O)CC%10=CNC=N%10)=O)CC8=CNC9=CC=CC=C89)=O)CO)=O)CC7=CC=C(C=C7)O)=O)CC5=CNC6=CC=CC=C56)N[C@H](C(N[C@H](C(N%12CCC[C@@H]%12[C@@](NCC(N)=O)=O)=O)CCCNC(N)=N)=O)CC(C)C`, greater than 46 µM; for `Cl.O=C(O)c1cn(C2CC2)c2cc(N3CCNCC3)c(F)cc2c1=O`, greater than 46 µM.
As for `O.O.O.O.O.O.O=P([O-])([O-])OP(=O)([O-])OP(=O)([O-])[O-].[Na+].[Na+].[Na+].[Na+].[Na+]`, the half-inhibitory concentration (IC50) is greater than 46 µM.
As for `CN1CCC(=C2c3ccccc3CC(=O)c3sccc32)CC1`, the half-maximal inhibitory concentration (IC50) is greater than 46 µM.
As to `O=C(N/N=C/c1ccc([N+](=O)[O-])o1)c1cc([N+](=O)[O-])cc([N+](=O)[O-])c1O`, the IC50 is greater than 46 µM.
`CC(N)CCCC(C)(C)O.Cl` (stereo not drawn) had an IC50 greater than 46 µM.
For `Nc1ccc(C=Cc2ccc(N)cc2S(=O)(=O)O)c(S(=O)(=O)O)c1` the value was greater than 46 µM; for `NS(=O)(=O)c1ccc(Cl)c(S(N)(=O)=O)c1`, greater than 46 µM.
The same measure for `CC(C)O`: greater than 46 µM; for `CC(CCc1ccc(O)cc1)NCC(O)c1ccc(O)cc1.Cl` (stereo not drawn): greater than 46 µM; for `CN(CCOc1ccc(CC2SC(=O)NC2=O)cc1)c1ccccn1` (stereo not drawn): greater than 46 µM.
For `CC(C)=CCC/C(C)=C/CO` the value was greater than 46 µM.
`CC(C)(Oc1ccc(C2CC2(Cl)Cl)cc1)C(=O)O` (stereo not drawn) came in with an IC50 greater than 46 µM.
With `N[C@@H](CSCCCO)C(=O)O`, the IC50 is greater than 46 µM.
In turn, `O=C(O)CCc1nc(-c2ccccc2)c(-c2ccccc2)o1` gave an IC50 greater than 46 µM.
For `CCOC(=O)C1=C(COCCN)NC(C)=C(C(=O)OC)C1c1ccccc1Cl.O=S(=O)(O)c1ccccc1` (stereo not drawn) the value was greater than 46 µM; for `OC[C@H]1O[C@@H](Oc2ccc(O)cc2)[C@H](O)[C@@H](O)[C@@H]1O`, greater than 46 µM; for `O=C(O)CCC(=O)Nc1ccc(S(=O)(=O)Nc2nccs2)cc1`, greater than 46 µM.
The same measure for `CCC1(c2ccccc2)C(=O)N(COC)C(=O)N(COC)C1=O`: greater than 46 µM.
Regarding `NC(=O)CN1CC(O)CC1=O` (stereo not drawn), the IC50 is greater than 46 µM.
For `CS(=O)(=O)c1ccc([C@@H](O)[C@@H](COC(=O)CN)NC(=O)C(Cl)Cl)cc1.Cl` the value was greater than 46 µM; for `NS(=O)(=O)c1ccc(NC(=O)CCC(=O)O)cc1`, greater than 46 µM; for `CC(C)[N+](C)(CCOC(=O)C1c2ccccc2Oc2ccccc21)C(C)C.[Br-]`, greater than 46 µM.
On to `Nc1ccc(S(N)(=O)=O)cc1`, for which the IC50 was greater than 46 µM.
For `CCCCCCCCCCCCCCCC(=O)OCC(COC(=O)CCCCCCCCCCCCCCC)OC(=O)CCCCCCCCCCCCCCC` the value was greater than 46 µM.
The same measure for `NC(=O)c1ccc([N+](=O)[O-])cc1Cl`: greater than 46 µM.
For `CC(=O)OCC1=C(C(=O)O)N2C(=O)[C@@H](NC(=O)Cc3cccs3)[C@H]2SC1` the value was greater than 46 µM; for `CCCN1CCC[C@@H]2Cc3n[nH]cc3C[C@H]21`, greater than 46 µM.
`CC(C)=O` returned an IC50 greater than 46 µM.
For `N=C(Nc1ccccc1)Nc1ccccc1` the value was greater than 46 µM; for `C=CCC1(C(C)CCC)C(=O)N=C([S-])NC1=O.[Na+]` (stereo not drawn), greater than 46 µM; for `O=C([O-])[C@H](O)[C@@H](O)[C@H](O)[C@H](O)CO.[Na+]`, greater than 46 µM.
Consider `C[S+](CC[C@H](N)C(=O)O)C[C@H]1O[C@@H](n2cnc3c(N)ncnc32)[C@H](O)[C@@H]1O.[Cl-]` (stereo partly drawn), for which the IC50 was greater than 46 µM.
`Cc1cc(C)c(C=C2C(=O)Nc3ccccc32)[nH]1` yielded an IC50 greater than 46 µM.
Compound `O=C(C)O[C@@](CC3)([C@](C)=O)[C@]2(C)[C@]3([H])[C@]1([H])C=C(C)C([C@@](CC4)(C)[C@]([H])1CC2)=CC4=O` showed an IC50 greater than 46 µM.
`Cc1ncc(CO)c(CN)c1O.Cl.Cl` gave an IC50 greater than 46 µM.
For `C#CCOc1ccc2c(C)cc(=O)oc2c1` the value was greater than 46 µM; for `CCC(=O)[C@@]1(C)[C@H](C)C[C@H]2[C@@H]3CCC4=CC(=O)C=C[C@]4(C)[C@H]3[C@@H](O)C[C@@]21C`, greater than 46 µM; for `Cc1ccccc1OCC(O)CNCCOc1ccc(C(N)=O)cc1` (stereo not drawn), greater than 46 µM.
The same measure for `COc1ccc(CN2CCNCC2)c(OC)c1OC.Cl.Cl`: greater than 46 µM.
`CC1(C)O[C@@H]2C[C@H]3[C@@H]4C[C@H](F)C5=CC(=O)CC[C@]5(C)[C@H]4[C@@H](O)C[C@]3(C)[C@]2(C(=O)CO)O1` displayed an IC50 greater than 46 µM.
For `COc1ccc2c(c1OC)C(=O)O[C@H]2[C@@H]1c2cc3c(cc2CCN1C)OCO3` the value was greater than 46 µM.
For `CC(=O)SC[C@H](Cc1ccccc1)C(=O)NCC(=O)OCc1ccccc1` the value was greater than 46 µM; for `O=C(/C=C/c1ccc(O)c(O)c1)O[C@@H]1C[C@@](OC(=O)/C=C/c2ccc(O)c(O)c2)(C(=O)O)C[C@@H](O)[C@@H]1O`, greater than 46 µM; for `C=CCN1CCc2nc(N)sc2CC1`, greater than 46 µM.
In turn, `CCC(Cc1c(I)cc(I)c(O)c1I)C(=O)O` (stereo not drawn) came in with a half-maximal inhibitory concentration (IC50) greater than 46 µM.
Consider `O=C(NCC(O)CO)c1c(I)c(C(=O)NCC(O)CO)c(I)c(N(CCO)C(=O)CO)c1I` (stereo not drawn), for which the IC50 is greater than 46 µM.
As for `CCON=O`, the IC50 was greater than 46 µM.
The same measure for `CC/C(=C(/CC)c1ccc(OP(=O)(O)O)cc1)c1ccc(OP(=O)(O)O)cc1`: greater than 46 µM; for `C=CCOC(Cn1ccnc1)c1ccc(Cl)cc1Cl.O=S(=O)(O)O` (stereo not drawn): greater than 46 µM; for `Cc1cc(C)c(NC(=O)C[C@H](CC(=O)[O][Na])c2cccc3ccccc23)c(C(=O)N2CCC3(CCCC3)CC2)c1`: greater than 46 µM.
For the compound `[H][C@@]23N(CCC4=C3NC5=C4C=CC(OC)=C5)C[C@@]1([H])C[C@@H](OC(COC6=CC=C(OC)C=C6)=O)[C@H](OC)[C@@H]([C@@](OC)=O)[C@]([H])1C2`, the IC50 was greater than 46 µM.
The same measure for `c1ccc2sc(SSc3nc4ccccc4s3)nc2c1`: greater than 46 µM.
For `CC(C)COC(=O)c1ccc(N)cc1` the value was greater than 46 µM; for `COc1ccc2cc3[n+](cc2c1OC)CCc1cc2c(cc1-3)OCO2.[Cl-]`, greater than 46 µM; for `C[C@H](CCC(=O)O)[C@H]1CC[C@H]2[C@@H]3C(=O)C[C@@H]4CC(=O)CC[C@]4(C)[C@H]3CC(=O)[C@]12C`, greater than 46 µM.
As for `N#Cc1c(N(CC(=O)[O-])CC(=O)[O-])sc(C(=O)[O-])c1CC(=O)[O-].O.O.O.O.O.O.O.[Sr+2].[Sr+2]`, the IC50 is greater than 46 µM.
As to `CCO[C@@H]1O[C@H](C(COCc2ccccc2)OCc2ccccc2)[C@H](OCc2ccccc2)[C@H]1O` (stereo partly drawn), the IC50 is greater than 46 µM.
The compound `CCC(C(N)=O)N1CCCC1=O` (stereo not drawn) had an IC50 greater than 46 µM.
For `CNCCCN1c2ccccc2CCc2ccccc21.Cl` the value was greater than 46 µM; for `Cl.O=C(O)c1cn(-c2ccc(F)cc2)c2cc(N3CCNCC3)c(F)cc2c1=O`, greater than 46 µM.
For the compound `CC(=O)Nc1cccc(O)c1`, the IC50 was greater than 46 µM.
The same measure for `O=C1Nc2ccc(Cl)cc2C(c2ccccc2)=NC1O` (stereo not drawn): greater than 46 µM; for `CC(C(=O)O)c1ccc(C(=O)c2cccs2)cc1` (stereo not drawn): greater than 46 µM.
For `CCC(=O)c1ccc(O)cc1` the value was greater than 46 µM; for `CCOP(=S)(OCC)Oc1ccc2c(C)c(Cl)c(=O)oc2c1`, greater than 46 µM; for `O[C@@H]3C\C4=C\C[C@@H]2[C@H](CC[C@]1(C)C(=O)CC[C@H]12)[C@@]4(C)CC3`, greater than 46 µM.
On to `C[C@@]1(CC2)[C@H](OC(C)=O)C[C@H]2[C@](C)1C`, for which the IC50 was greater than 46 µM.
The same measure for `O=CCCCC=O`: greater than 46 µM.
In turn, `CCOCCn1c(N2CCCN(C)CC2)nc2ccccc21.O=C(O)/C=C/C(=O)O.O=C(O)/C=C/C(=O)O` came in with an IC50 greater than 46 µM.
The same measure for `O=C(O)C1CCCN1` (stereo not drawn): greater than 46 µM.
The same measure for `CN(C)CCc1c[nH]c2ccc(C[C@H]3COC(=O)N3)cc12`: greater than 46 µM; for `CC(COc1ccccc1)N(CCCl)Cc1ccccc1` (stereo not drawn): greater than 46 µM; for `Nc1c(CC(=O)[O-])cccc1C(=O)c1ccc(Br)cc1.Nc1c(CC(=O)[O-])cccc1C(=O)c1ccc(Br)cc1.O.O.O.[Na+].[Na+]`: greater than 46 µM.
For `OCc1ccccn1` the value was greater than 46 µM.
Turning to `O=[C@@]([C@@H]2CC[C@@H](CN)CC2)OC1=CC=C(CCC(O)=O)C=C1.Cl`, the IC50 was greater than 46 µM.
With `NC(=O)c1cccnc1`, the IC50 is greater than 46 µM.
In turn, `Cl.Nc1ccc(/N=N/c2ccccc2)c(N)n1` gave an IC50 greater than 46 µM.
For `CCCCCCCC/C=C\CCCCCCCC(=O)O` the value was greater than 46 µM; for `Nc1nc(F)nc2c1ncn2[C@H]1O[C@@H](CO)[C@H](O)[C@H]1O`, greater than 46 µM; for `COc1ccc(C[C@H](C)NC[C@@H](O)c2ccc(O)c(NC=O)c2)cc1.COc1ccc(C[C@H](C)NC[C@@H](O)c2ccc(O)c(NC=O)c2)cc1.O=C(O)/C=C/C(=O)O`, greater than 46 µM.
The same measure for `C=CCN1C(=O)C(CC(C)C)NC1=S` (stereo not drawn): greater than 46 µM.
Compound `Cc1ccc(C)c(OCCCC(C)(C)C(=O)O)c1` returned an IC50 greater than 46 µM.
With `CCNc1nc(Cl)nc(NCC)n1`, the IC50 was greater than 46 µM.
For `O=C1CCCCC1CN1CCCCC1` (stereo not drawn) the value was greater than 46 µM; for `C[N+]1(CC2COC(c3ccccc3)(C3CCCCC3)O2)CCCCC1.[I-]` (stereo not drawn), greater than 46 µM.
